Source: ChEMBL document CHEMBL4177535 (Bioorg Med Chem Lett, 2017)

How the values were obtained:
[1] = test system: Human immunodeficiency virus 1; experiment: Antiviral activity against R5 tropic HIV-1 BAL infected in human PBL assessed as reduction in Agp24 level at 100 uM measured after 3 days by ELISA relative to control; format: functional; set-up: scale not given: the % may be the effect or the level left
[2] = target: Rap guanine nucleotide exchange factor 3 (Homo sapiens, UniProt O95398); experiment: Activation of EPAC1 DEP1 deletion mutant (unknown origin) expressed in mouse NIH-3T3-A14 cells assessed as increase in Rap1b- fluorescent nucleotide methylontraniloyl-GDP nucleotide exchange by fluorescence assay; format: cell-based
Chain of Rap guanine nucleotide exchange factor 3 (O95398 whole entry, looked up): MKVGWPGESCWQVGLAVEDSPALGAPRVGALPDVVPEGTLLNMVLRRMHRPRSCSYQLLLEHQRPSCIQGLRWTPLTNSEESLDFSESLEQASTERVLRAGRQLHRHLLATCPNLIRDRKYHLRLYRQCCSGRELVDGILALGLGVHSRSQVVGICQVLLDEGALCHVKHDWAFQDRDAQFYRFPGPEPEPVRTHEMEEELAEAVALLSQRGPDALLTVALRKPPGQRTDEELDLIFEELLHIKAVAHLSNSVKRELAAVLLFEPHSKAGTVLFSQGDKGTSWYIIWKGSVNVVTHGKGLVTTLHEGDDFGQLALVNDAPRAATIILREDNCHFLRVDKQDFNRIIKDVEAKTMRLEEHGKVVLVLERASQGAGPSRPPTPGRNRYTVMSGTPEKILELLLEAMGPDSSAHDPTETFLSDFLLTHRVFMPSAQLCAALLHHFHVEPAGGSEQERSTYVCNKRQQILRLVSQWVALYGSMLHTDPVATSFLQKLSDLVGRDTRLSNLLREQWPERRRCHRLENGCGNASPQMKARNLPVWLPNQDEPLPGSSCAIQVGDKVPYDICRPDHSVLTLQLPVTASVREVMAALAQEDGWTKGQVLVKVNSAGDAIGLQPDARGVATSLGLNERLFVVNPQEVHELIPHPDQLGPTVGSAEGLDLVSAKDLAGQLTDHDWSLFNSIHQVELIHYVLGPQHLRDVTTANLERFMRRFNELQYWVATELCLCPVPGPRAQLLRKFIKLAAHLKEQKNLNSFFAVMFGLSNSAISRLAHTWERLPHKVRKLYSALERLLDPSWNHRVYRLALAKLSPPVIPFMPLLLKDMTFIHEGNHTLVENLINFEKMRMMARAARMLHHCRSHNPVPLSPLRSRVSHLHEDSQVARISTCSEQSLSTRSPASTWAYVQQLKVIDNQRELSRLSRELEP

EC50 [2]: 2200 nM
Structure (SMILES): CO[C@@H]1[C@@H]2OP(=O)(O)OC[C@H]2O[C@H]1n1c(Sc2ccc(Cl)cc2)nc2c(N)ncnc21
Activity [1]: 40%
